Experimental findings from patent US20250289785A1, “INDOLE DERIVATIVE, METHOD FOR PREPARING SAME, AND USE THEREOF” (MITOIMMUNE THERAPEUTICS INC., priority 2021, published 2025) are described below.

The test system of the assay is H9C2 cells. The experiment in a line: Cell protection effect against t-BHP in heart cells (LDH release). The following applies: H9C2, t-BHP 40 μM, 2 hours. Type of assay: cell-based. As to the method: In order to identify the protective effect with regard to heart cells, H9C2 cells were divided into 96-well plates by 1.5×10^4, and cultured for 24 hours. The respective wells were treated with compounds of the examples 3× serial diluted to final concentrations of […], then cultured for 15 to 20 minutes. After treating with t-BHP with a final concentration of 40 μM, culturing was performed for 2 hours. In order to identify the protective effect of each compound, a Cytotoxicity LDH assay kit [Dojindo; CK12] was used to measure the degree of extracellular secretion of LDH. To describe briefly, at the time point 2-hour treatment of the cells with t-BHIP was completed, 100 μL each of the supernatant in which the cells were placed was collected and moved to a new 96-well plate. 100 μL/well of the assay buffer included in the kit (same amount as the sample) was added, followed by wrapping with foil and reacting for 30 minutes at room temperature. Observing the change in color of the sample, 50 μL/well of stop solution was added, then an iD3 spectrometer was used to measure absorbance at 490 nm and calculate the EC50 values. The EC50 of the compounds of the examples is preferably no more than 1.0 μM, and more preferably no more than 0.3 μM.

Regarding `COCc1cc(NC2CCC(F)(F)CC2)c2[nH]c(-c3ccccc3)cc2c1` [Example 7, N-(4,4-difluorocyclohexyl)-5-(methoxymethyl)-2-phenyl-1H-indol-7-amine], the EC50 (in general, the concentration needed to bring the measured effect to its halfway point) is not above 300 nM.

For `COCCc1cc(NC2CCCC2)c2[nH]c(-c3ccccc3)cc2c1` [Example 42, N-cyclopentyl-5-(2-methoxyethyl)-2-phenyl-1H-indol-7-amine], the EC50 was not above 300 nM.

The compound `CCOCc1cc(NC2CCCC2)c2[nH]c(-c3ccccc3)c(CCC(=O)OC)c2c1` [Example 38, Methyl 3-(7-(cyclopentylamino)-5-(ethoxymethyl)-2-phenyl-1H-indol-3-yl)propanoate] yielded an EC50 not above 300 nM.

As for `CCOCc1cc(N(C2CCOCC2)C2CCOCC2)c2[nH]c(-c3ccccc3)c(/C=N/OC)c2c1` [Example 26, (E)-7-(bis(tetrahydro-2H-pyran-4-yl)amino)-5-(ethoxymethyl)-2-phenyl-1H-indole-3-carbaldehyde O-methyl Oxime], the EC50 was more than 1000 nM.

As for `COCCCc1cc(NC2CCOCC2)c2[nH]c(-c3ccccc3)cc2c1` [Example 50, 5-(3-methoxypropyl)-2-phenyl-N-(tetrahydro-2H-pyran-4-yl)-1H-indol-7-amine], the EC50 is not above 300 nM.

In the case of `CCOCc1cc(NC2CCCC2)c2[nH]c(-c3ccccc3)c(C#N)c2c1` [Example 23, 7-(cyclopentylamino)-5-(ethoxymethyl)-2-phenyl-1H-indole-3-carbonitrile], the 50% effective concentration (EC50) is not above 300 nM.

Regarding `COCc1cc(NC2CCS(=O)(=O)CC2)c2[nH]c(-c3ccccc3)cc2c1` [Example 4, N-(1,1-dioxothian-4-yl)-5-(methoxymethyl)-2-phenyl-1H-indol-7-amine], the EC50 was not above 300 nM.

Consider `CCOCc1cc(NC2CCOCC2)c2[nH]c(-c3ccccc3)c(/C=C/C(=O)c3ccccc3)c2c1` [Example 35, (E)-3-(5-(ethoxymethyl)-2-phenyl-7-((tetrahydro-2H-pyran-4-yl)amino)-1H-indol-3-yl)-1-phenylpropan-2-en-1-one], for which the EC50 was not above 300 nM.

`COCc1cc(NC(C)C)c2[nH]c(-c3ccccc3)cc2c1` [Example 10, N-isopropyl-5-(methoxymethyl)-2-phenyl-1H-indol-7-amine] yielded an EC50 not above 300 nM.

As for `CCOCc1cc(NC2CCOCC2)c2[nH]c(-c3ccccc3)c(C(O)C(F)(F)F)c2c1` (stereo not shown) [Example 37, 1-(5-(ethoxymethyl)-2-phenyl-7-((tetrahydro-2H-pyran-4-yl)amino)-1H-indol-3-yl)-2,2,2-trifluoro-1-ol], the EC50 fell in the range of 300 to 1000 nM.

Regarding `CC(C)OCc1cc(NC2CCOCC2)c2[nH]c(-c3ccccc3)cc2c1` [Example 22, 5-(isopropoxymethyl)-2-phenyl-N-(tetrahydro-2H-pyran-4-yl)-1H-indol-7-amine], the EC50 was not above 300 nM.

Turning to `CCOCc1cc(NC2CCCC2)c2[nH]c(-c3ccccc3)c(CCC(=O)O)c2c1` [Example 40, 3-(7-(cyclopentylamino)-5-(ethoxymethyl)-2-phenyl-1H-indol-3-yl)propanoic acid], the EC50 is more than 1000 nM.

`CCOCc1cc(NC2CCOCC2)c2[nH]c(-c3ccccc3)c(CCC(=O)OC)c2c1` [Example 39, Methyl 3-(5-(ethoxymethyl)-2-phenyl-7-((tetrahydro-2H-pyran-4-yl)amino)-1H-indol-3-yl)propanoate] had an EC50 not above 300 nM.

Compound `CCOCc1cc(NC2CCOCC2)c2[nH]c(-c3ccccc3)c(C(=O)C(F)(F)F)c2c1` [Example 33, 1-(5-(ethoxymethyl)-2-phenyl-7-((tetrahydro-2H-pyran-4-yl)amino)-1H-indol-3-yl)-2,2,2-trifluoro-1-one] displayed an EC50 of 300 to 1000 nM.

Turning to `CCOCc1cc(NC2CCCC2)c2[nH]c(-c3ccccc3)c(/C=C/C(=O)OC)c2c1` [Example 30, methyl (E)-3-(7-(cyclopentylamino)-5-(ethoxymethyl)-2-phenyl-1H-indol-3-yl)acrylate], the EC50 was not above 300 nM.

Regarding `CCOCc1cc(NC2CCCC2)c2[nH]c(-c3ccccc3)c(C(O)C(F)(F)F)c2c1` (stereo not shown) [Example 36, 1-(7-(cyclopentylamino)-5-(ethoxymethyl)-2-phenyl-1H-indol-3-yl)-2,2,2-trifluoroethan-1-ol], the EC50 was not above 300 nM.

Take `CC(C)(C)OCc1cc(NC2CCCC2)c2[nH]c(-c3ccccc3)cc2c1` [Example 16, 5-(tert-butoxymethyl)-N-cyclopentyl-2-phenyl-1H-indol-7-amine]: the EC50 was not above 300 nM.

As to `CCOCc1cc(NC2CCCC2)c2[nH]c(-c3ccccc3)c(C(=O)C(F)(F)F)c2c1` [Example 32, 1-(7-(cyclopentylamino)-5-(ethoxymethyl)-2-phenyl-1H-indol-3-yl)-2,2,2-trifluoroethan-1-one], the EC50 is not above 300 nM.

As to `CCOCc1cc(NC2CCOCC2)c2[nH]c(-c3ccccc3)c(-c3nccn3C(=O)OCC)c2c1` [Example 44, ethyl 2-(5-(ethoxymethyl)-2-phenyl-7-((tetrahydro-2H-pyran-4-yl)amino)-1H-indol-3-yl)-1H-imidazole-1-carboxylate], the EC50 is more than 1000 nM.

`COCc1cc(NC2CCOCC2)c2[nH]cc(-c3ccccc3)c2c1` [Example 18, 5-(methoxymethyl)-3-phenyl-N-tetrahydropyran-4-yl-1H-indol-7-amine]: the EC50 was not above 300 nM.

In turn, `CCOCc1cc(NC2CCCC2)c2[nH]c(-c3ccccc3)c(-c3nccn3C(=O)OCC)c2c1` [Example 43, Ethyl 2-(7-(cyclopentylamino)-5-(ethoxymethyl)-2-phenyl-1H-indol-3-yl)-1H-imidazole-1-carboxylate] gave an EC50 of 300 to 1000 nM.

As to `COCCCNc1cc(COC)cc2cc(-c3ccccc3)[nH]c12` [Example 13, 5-(methoxymethyl)-N-(3-methoxypropyl)-2-phenyl-1H-indol-7-amine], the EC50 was not above 300 nM.

On to `CCOCc1cc(NC2CCOCC2)c2[nH]c(-c3ccccc3)c(/C=C/C(=O)OC)c2c1` [Example 31, Methyl (E)-3-(5-(ethoxymethyl)-2-phenyl-7-((tetrahydro-2H-pyran-4-yl)amino)-1H-indole-3-yl)acrylate], for which the EC50 was not above 300 nM.

Turning to `COCc1cc(NC2CCN(S(C)(=O)=O)CC2)c2[nH]c(-c3ccccc3)cc2c1` [Example 5, 5-(methoxymethyl)-N-(1-methylsulfonyl-4-piperidyl)-2-phenyl-1H-indol-7-amine], the EC50 is not above 300 nM.

For the compound `CC(C)(C)OCc1cc(NC2CCOCC2)c2[nH]c(-c3ccccc3)cc2c1` [Example 15, 5-(tert-butoxymethyl)-2-phenyl-N-tetrahydropyran-4-yl-1H-indol-7-amine], the EC50 was not above 300 nM.

For `CCOCc1cc(NC2CCOCC2)c2[nH]c(-c3ccccc3)c(/C=N/OC)c2c1` [Example 27], the EC50 was not above 300 nM.

Consider `CCCOCc1cc(NC2CCOCC2)c2[nH]c(-c3ccccc3)cc2c1` [Example 47, 2-phenyl-5-(propoxymethyl)-N-(tetrahydro-2H-pyran-4-yl)-1H-indol-7-amine], for which the EC50 is not above 300 nM.

As to `COCCNc1cc(COC)cc2cc(-c3ccccc3)[nH]c12` [Example 12, N-(2-methoxyethyl)-5-(methoxymethyl)-2-phenyl-1H-indol-7-amine], the EC50 is not above 300 nM.

In turn, `CCOCc1cc(NC2CCOCC2)c2[nH]c(-c3ccccc3)cc2c1` [Example 20, 5-(ethoxymethyl)-2-phenyl-N-(tetrahydro-2H-pyran-4-yl)-1H-indol-7-amine] came in with an EC50 not above 300 nM.

Compound `CCOCc1cc(NC2CCCC2)c2[nH]c(-c3ccccc3)c(/C=N/OC)c2c1` [Example 25, (E)-7-(cyclopentylamino)-5-(ethoxymethyl)-2-phenyl-1H-indole-3-carbaldehyde O-methyl oxime] registered an EC50 not above 300 nM.

Compound `c1ccc(-c2cc3cc(COCC4CC4)cc(NC4CCOCC4)c3[nH]2)cc1` [Example 48, 5-((cyclopropylmethoxy)methyl)-2-phenyl-N-(tetrahydro-2H-pyran-4-yl)-1H-indol-7-amine] returned an EC50 not above 300 nM.

For `CCOCc1cc(NC2CCOCC2)c2[nH]c(-c3ccccc3)c(C#N)c2c1` [Example 24, 5-(ethoxymethyl)-2-phenyl-7-((tetrahydro-2H-pyran-4-yl)amino)-1H-indole-3-carbonitrile], the EC50 was 300 to 1000 nM.

`COCc1cc(NCc2ccccc2)c2[nH]c(-c3ccccc3)cc2c1` [Example 8, N-benzyl-5-(methoxymethyl)-2-phenyl-1H-indol-7-amine] displayed an EC50 not above 300 nM.

In turn, `CCOCc1cc(NCC2CCOCC2)c2[nH]c(-c3ccccc3)cc2c1` [Example 49, 5-(ethoxymethyl)-2-phenyl-N-((tetrahydro-2H-pyran-4-yl)methyl)-1H-indol-7-amine] registered an EC50 not above 300 nM.

In turn, `COCc1cc(NC2CCN(C(=O)OC(C)(C)C)CC2)c2[nH]c(-c3ccccc3)cc2c1` [Example 9, tert-butyl 4-[[5-(methoxymethyl)-2-phenyl-1H-indol-7-yl]amino]-piperidine-1-carboxylate] registered an EC50 not above 300 nM.

Take `CCOCc1cc(NC2CCCC2)c2[nH]c(-c3ccccc3)c(-c3ncc[nH]3)c2c1` [Example 45, N-cyclopentyl-5-(ethoxymethyl)-3-(1H-imidazol-2-yl)-2-phenyl-1H-indol-7-amine]: the EC50 fell in the range of 300 to 1000 nM.

As for `CCOCc1cc(NC2CCCC2)c2c(c1)c(COC)c(-c1ccccc1)n2C` [Example 28, N-cyclopentyl-5-(ethoxymethyl)-3-(methoxymethyl)-1-methyl-2-phenyl-1H-indol-7-amine], the EC50 lay within 300 to 1000 nM.
